For test [1], the system named is RAW 264.7 cells (LPS-induced TLR4 signaling). Put plainly: Cytokine secretion (ELISA) in LPS-treated RAW 264.7 cells. Type of test: cell-based, mouse. As to conditions: TIP1 and LPS. The procedure:
(§1) RAW 264.7 cells, THP1 cells, and mBMDM cells were dispensed into 96-well plates to a cell number of 2×10^5 cells/well, or into 24-well plates to a cell number of 5×10^5 cells/well. Incubation was performed overnight. Subsequently, combined treatment with TIP1 and LPS was performed. After 24 hours, secretion levels of IFN-β, IL-6, and TNF-α were measured using a […] (BioLegend), Mouse IL-6 Platinum ELISA (eBiosciences), and a Mouse TNF alpha ELISA Ready SET-Go! kit (eBiosciences). Absorbance was measured at 450 nm using a microplate reader spectrophotometer (Molecular Devices), and the results were analyzed using Softmax Pro 5.3 software (Molecular Devices Inc.).
TNF-α, IL-6, IFN-β levels in the culture supernatant of RAW 264.7 cells were measured using mouse TNF-α, IL-6, IFN-β Ready-SET-Go! ELISA kits according to the method described in Example 2-5. The results are illustrated in FIGS. 4(a)-4(c).
Background: ELISA stands for enzyme-linked immunosorbent assay.

Test [2] concerns TLR4 signaling pathways. Briefly: Western blotting of NF-κB, IRF3 and MAPK in LPS-treated RAW 264.7 cells. Type of test: cell-based, mouse. The procedure:
In order to perform Western blotting, a pre-protein extraction solution (M-PER, Thermo Fisher Scientific Inc.) was mixed with a protease and phosphatase inhibitor mixture, and was added to RAW 264.7 cell or hPBMC cell pellets. The pellets were cooled for 10 minutes, and then the lysates were centrifuged at 16000×g for 10 minutes. Then, NE-PER nuclear and cytoplasmic extraction reagents (Thermo Fisher Scientific Inc.) were used to extract cytoplasmic and nuclear proteins, respectively, and a BCA kit (Sigma-Alderich Co. LLC) was used to measure concentrations of the proteins. Subsequently, the same amounts of proteins were developed on SDS-polyacrylamide gels, and electrophoresis was performed using the Mini-PROTEAN Tetra Cell two-dimensional electrophoresis system (Bio-Rad Laboratories, Hercules, Calif., USA). The membrane was immunoblotted with primary antibodies by gentle shaking overnight at a temperature of 4° C. (in which the primary antibodies were antibodies against p-p65, p-JNK, p-IRF3, ERK, p38, and human IL-1β (Cell Signaling Technology Inc., Danvers, Mass., USA); p-ERK, p-p38, Iκ-Bα, JNK, ATF3, COX2, caspase-1, and β-actin (Santa Cruz Biotechnology Inc., Santa Cruz, Calif., USA); iNOS (BD Biosciences); IL-6 and mouse IL-1β (R&D Systems Inc., Minneapolis, Minn., USA); TNF-α (Thermo Fisher Scientific, Inc.); NLRP3 (Adipogen, San Diego, Calif., USA)). Then, after thorough shaking with PBST, the membrane was incubated with anti-mouse/-rabbit HRP-conjugated secondary antibodies (Thermo Fisher Scientific Inc.) for 2 hours; and the proteins were detected with SuperSignal West Pico ECL solution (Thermo Fisher Scientific Inc.) and were visualized with the Fuji LAS-3000 system (Fujifilm, Tokyo, Japan).
TLR4-mediated responses induced by LPS induce direct interactions between the TIR domain of TIRAP and MyD88, thereby activating MyD88-dependent signaling pathways. In addition, the TLR4-mediated responses induce interactions between the TIR domain of TRAM and TRIF, thereby also activating MyD88-independent signaling pathways. […]
For orientation: Immunoblotting shows a protein as a band on a membrane.

Test [3] deals with mBMDM cells (LPS-induced). Put plainly: LPS-induced cytokine and NO secretion in mBMDM cells. Type of test: cell-based, mouse. The protocol: as §1
(§2) RAW 264.7 cells and mBMDM cells were dispensed into 96-well plates (BD Biosciences) to a cell number of 2×10^5 cells/well and incubated overnight. Then, a NO level of the culture supernatant was measured using a NO detection kit (iNtRON Biotechnology Inc., Seongnam, Korea). Absorbance was measured at 550 nm using a microplate reader spectrophotometer (Molecular Devices Inc.), and the results were analyzed using Softmax Pro 5.3 software (Molecular Devices Inc.).
TNF-α, IL-6, IFN-β levels in the culture supernatant of mBMDM cells were measured using mouse TNF-α, IL-6, IFN-β Ready-SET-Go! ELISA kits according to the method described in Example 2-5, and a NO level in the supernatant was measured according to the method described in Example 2-7. The results are illustrated in FIGS. 6(a)-6(d).

For test [4], the target named is T1, BB-loop and C-terminal region of the TIR domain of TLR4 (Homo sapiens, UniProt O00206).
T1 construct: purchased Peptron, Inc; host or cells: chemical synthesis
Briefly: Surface plasmon resonance (SPR) assay. Type of test: binding. Particulars: conclusion of Experimental Example 8; no SPR constants printed. The protocol: Surface plasmon resonance assay was performed using a ProteOn XPR36 instrument (Bio-Rad Laboratories, Inc.) with a ProteOn NLC sensor chip. Specifically, a synthetic peptide encoding BB-loop ([…]) (SEQ ID NO: 54) and C-terminal region ([…]) (SEQ ID NO: 55) of the TIR domain was immobilized on the surface of the NLC sensor chip using NeutrAvidin bound to the GLC polymer layer. For a control, PBS supplemented with 0.05% Tween 20, which is a running buffer, was flowed. […] After the measurement, the surface of the sensor chip was regenerated using 0.85% phosphoric acid or PBST. […] The equilibrium dissociation constant KD was calculated using the equation KD=Kd/Ka.

For test [5], the system named is RAW 264.7 cells. Briefly: NO secretion level in RAW 264.7 culture supernatant. Type of test: cell-based, mouse. Particulars: TIP1 and LPS. The protocol:
as §2
In addition, according to the method described in Example 2-7, a NO level in the culture supernatant of RAW 264.7 cells was measured using a NO detection kit. The results are illustrated in FIGS. 5(a)-5(c).

Where [6] appears, read: LPS together with TIP1, FIG. 2(a).

For RQIKIWFQNRRMKWKKSHCRVLLI (TIP1), in test [1], the “secretion of IFN-β” value was “decreased in a concentration-dependent manner”, the “secretion of IL-6” value was “decreased in a concentration-dependent manner” and the “secretion of TNF-α” value was “decreased in a concentration-dependent manner”. Moreover, in test [2] (setting [6]), the “NF-κB activity (Western blotting)” value is listed as “NF-κB activity was inhibited”; the “degree of degradation of Iκ-Bα, and activity of IRF3 and ATF3” value is listed as “decreased”. The “MAPK activity (phosphorylation of ERK, JNK, p38)” value in test [2] (LPS together with TIP1, FIG. 2(b)) is on record as “MAPK activity was inhibited”. Also, in test [3], the “LPS-induced secretion level of IL-6” value is on record as “decreased”, the “LPS-induced secretion level of NO” value was “decreased” and the “LPS-induced secretion level of TNF-α” value was “decreased”. Further, in test [4], the “binding to TIR domain regions of TLR4” value was “binding to the C-terminal tail and the BB loop among the TIR domains of TLR4”. In test [5], the “extracellular secretion of NO” value is listed as “effectively decreased”.

Values taken from patent US11352399B2, “Peptide for toll-like receptor (TLR) inhibition and pharmaceutical composition comprising same” (GENESEN CO., LTD., priority 2017, dated 2022).
